The experiment concerns the target Complement factor D (Homo sapiens, UniProt P00746). Description: Human Factor D Assay: Human factor D (purified from human serum, Complement Technology, Inc.) at 80 nM final concentration is incubated with test compound at various concentrations for 5 minutes at room temperature in 50 mM Tris, 1M NaCl, pH 7.5. A synthetic substrate Z-L-Lys-SBzl and DTNB (Ellman's reagent) are added to final concentrations of 100 μM each. The increase in color is recorded at OD405 nm in a microplate in kinetic mode over 30 minutes with 30 second time points in a spectrofluorimeter. IC50 values are calculated by non-linear regression from the percentage of inhibition of complement factor D activity as a function of test compound concentration.

Bounds are passed on as bounds.

Sequence of Complement factor D (P00746 whole entry): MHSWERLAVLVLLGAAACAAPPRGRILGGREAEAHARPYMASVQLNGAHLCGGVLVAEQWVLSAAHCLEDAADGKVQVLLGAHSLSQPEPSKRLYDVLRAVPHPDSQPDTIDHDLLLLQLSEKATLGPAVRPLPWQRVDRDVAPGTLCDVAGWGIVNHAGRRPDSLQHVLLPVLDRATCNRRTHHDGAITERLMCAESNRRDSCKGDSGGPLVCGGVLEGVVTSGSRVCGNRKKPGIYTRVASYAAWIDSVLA

Broadly, the IC50 is the concentration that gives 50% inhibition. Regarding `CC(=O)c1cn(CC(=O)N2C[C@H](F)C[C@H]2C(=O)NCc2cccc(Cl)c2F)c2cc(P(=O)(Oc3ccccc3)Oc3ccccc3)ccc12`, the IC50 is less than 1000 nM.

The record behind these values is ChEMBL document CHEMBL5726269, “Phosphonate compounds for treatment of complement mediated disorders” (2017).
